Measured values taken from PMC3598705, “Evaluation of Toxicity and Biodegradability of Cholinium Amino Acids Ionic Liquids” (PLoS ONE, 2013).

Columns and labels:
[1] = biological target: T1, AChE type VI-S (from the electric eel) (Electrophorus electricus, UniProt O42275); test: AChE inhibition assay (colorimetric, DTNB reduction); assay type: biochemical; conditions: DTNB 0.5 mM, AChE 0.05 U mL^−1, acetylthiocholine iodide 0.5 mM, 37 °C, phosphate buffer pH 8.0; mean ± SD; read-out: EC50±SD (toxicity toward AChE)
T1 construct: purchased Sigma–Aldrich, USA type VI-S (catalogue number not given)
T1 sequence (O42275 24-633): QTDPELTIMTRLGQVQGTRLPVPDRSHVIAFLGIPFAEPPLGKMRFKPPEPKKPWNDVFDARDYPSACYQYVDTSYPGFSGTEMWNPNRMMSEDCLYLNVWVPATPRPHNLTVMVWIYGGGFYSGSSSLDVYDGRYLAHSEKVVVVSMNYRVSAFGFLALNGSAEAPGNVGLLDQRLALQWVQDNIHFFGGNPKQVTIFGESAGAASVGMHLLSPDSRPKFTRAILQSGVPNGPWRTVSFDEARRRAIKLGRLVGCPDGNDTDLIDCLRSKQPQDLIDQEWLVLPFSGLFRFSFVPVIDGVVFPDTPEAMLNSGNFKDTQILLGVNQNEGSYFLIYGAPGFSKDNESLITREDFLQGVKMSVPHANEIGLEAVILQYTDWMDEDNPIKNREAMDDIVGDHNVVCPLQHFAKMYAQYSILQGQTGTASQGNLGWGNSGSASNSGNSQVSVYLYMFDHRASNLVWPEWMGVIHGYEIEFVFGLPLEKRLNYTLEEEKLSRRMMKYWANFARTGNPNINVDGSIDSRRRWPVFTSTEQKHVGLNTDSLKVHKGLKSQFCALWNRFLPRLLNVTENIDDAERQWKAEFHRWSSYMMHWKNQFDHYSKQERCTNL
Method: A colorimetric assay based on reduction of DTNB was used to measure AChE inhibition as described previously, [24], in the presence of a phosphate buffer system in order to eliminate the effects of pH changes on enzyme activity. Briefly, IL solutions were prepared with 0.2 M phosphate buffer (pH 8.0) in 96-well microtiter plates. The enzyme (0.2 U mL^−1, plus 0.25 mg mL^−1 bovine serum albumin in the same phosphate buffer), and DTNB (2 mM, plus 0.185 mg mL^−1 NaHCO3 in the same phosphate buffer) were added to each well and kept at 37 °C for 5 min, and then the reaction was initiated by adding acetylthiocholine iodide (2 mM in the same phosphate buffer). In the experimental reactions, the final concentrations of DTNB, acetylthiocholine iodide and AChE were 0.5 mM, 0.5 mM and 0.05 U mL^−1, respectively. Except where stated otherwise, the concentration range used to calculate EC50 of the [Ch][AA] ILs was 0–50 mM. However, for strongly alkaline [Ch][AA] ILs such as [Ch][Lys], the maximum concentration used was 20 mM in order to avoid changes in enzyme activity due to pH changes that would be caused if the IL exceeded the buffering capacity of the phosphate buffer. Acidic amino acid-derived ILs ([Ch][Asp] and [Ch][Glu]) were used up to 80 mM. The control compounds cholinium chloride ([Ch][Cl]), [Bmim][BF4] and acetone were used at concentration ranges of 0–80 mM, 0–50 mM and 10 mM–2.5 M, respectively. Control experiments without enzyme were carried out under otherwise identical conditions. Reduction of DTNB was monitored at 405 nm and at 10 second intervals in a microplate reader (Wallac 1420 VICTOR3, PerkinElmer, Singapore) over a period of 5 min. Enzyme activity was expressed as ΔOD min^−1 obtained via linear regression analysis. All assays were performed at least in triplicate.
All data were analyzed by One-Way analysis of variance using SPSS 11.5 (SPSS Inc., USA). EC50 values are presented as mean ± standard deviation (SD) from at least three repeats, and confidence intervals (α = 0.05) of EC50 are also presented. The One-Way ANOVA was used to judge if the difference between the different ILs groups was significant. When the p value was<0.05, the difference was considered to be significant.

[2] = test system: E. coli ATCC 8739; test: Antimicrobial activity, tube dilution method; assay type: cell-based, Escherichia coli; conditions: four repeated experiments; for MIC: 24 h at 37 °C; for MBC: kills 99.9% or more
Method: (§1) Antimicrobial activity was measured via the tube dilution method as described previously. Briefly, E. coli, S. aureus, S. enteritidis and L. monocytogenes were cultured in Mueller-Hinton broth for 24 h at 37 °C. A microorganism suspension of 10^6 cfu mL^−1 (cfu, colony forming units) was prepared from each culture. IL solutions (31.3–1500 mM) were prepared with sterilized Mueller-Hinton broth, and then were sterilized by filtration (0.45 µm pore-diameter membrane). The various permutations of microorganism suspension (50 µL) and IL solution (50 µL) were mixed in 96-well microtiter plate. Growth of the microorganisms was determined visually after incubation for 24 h at 37 °C. Controls were conducted under the same conditions: negative controls without microorganisms and positive controls without ILs. The lowest concentration at which there was no visible growth (turbidity) was taken as the minimal inhibitory concentration (MIC). Samples of 20 µL from each well were spread onto Mueller-Hinton agar medium with inactivates (0.3% lecithin, 3% polysorbate 80 and 0.1% L-cysteine) and incubated for 48 h at 37 °C. The lowest concentration of the IL that killed 99.9% or more of the test bacterium was taken as the minimum biocidal concentration (MBC).

[3] = test system: S. enteritidis ATCC 14128; test: Antimicrobial activity, tube dilution method; assay type: cell-based, Salmonella enteritidis; conditions: four repeated experiments; for MIC: 24 h at 37 °C; for MBC: kills 99.9% or more
Method: as §1

[4] = test system: L. monocytogenes ATCC 19115; test: Antimicrobial activity, tube dilution method; assay type: cell-based, Listeria monocytogenes; conditions: four repeated experiments; for MIC: 24 h at 37 °C; for MBC: kills 99.9% or more
Method: as §1

[5] = test system: S. aureus ATCC 29213; test: Antimicrobial activity, tube dilution method; assay type: cell-based, Staphylococcus aureus; conditions: four repeated experiments; for MIC: 24 h at 37 °C; for MBC: kills 99.9% or more
Method: as §1

## CCC(C)C(N)C(=O)[O-].C[N+](C)(C)CCO (centres unmarked) [[Ch][Ile]]
[1]
  EC50: 3.57 ± 0.07 mM
[2]
  MIC: 46.9 mM
  MBC: 62.5 mM
[3]
  MIC: 46.9 mM
  MBC: 62.5 mM
[4]
  MIC: 46.9 mM
  MBC: 62.5 mM
[5]
  MIC: 93.8 mM
  MBC: 125 mM

## C[N+](C)(C)CCO.NCCCC[C@H](N)C(=O)[O-] [[Ch][Lys]]
[1]
  EC50: 3.48 ± 0.13 mM
[2]
  MIC: 31.3 mM
  MBC: 46.9 mM
[3]
  MIC: 31.3 mM
[4]
  MIC: 62.5 mM
  MBC: 93.8 mM
[5]
  MIC: 62.5 mM
  MBC: 93.8 mM

## C[N+](C)(C)CCO.N[C@@H](Cc1ccccc1)C(=O)[O-] [[Ch][Phe]]
[1]
  EC50: 2.74 ± 0.1 mM
[2]
  MIC: 31.3 mM
  MBC: 46.9 mM
[3]
  MIC: 31.3 mM
  MBC: 46.9 mM
[4]
  MIC: 46.9 mM
  MBC: 62.5 mM
[5]
  MIC: 62.5 mM
  MBC: 93.8 mM
